Calls of active or inactive are those of the source. The rule behind the calls is not given here.
Test system: rodent carcinogenicity bioassays, tumor incidence
Test: CCRIS carcinogenicity studies
Method in brief: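 Archive of carcinogenicity, mutagenicity, tumor promotion and tumor inhibition results drawn from journals, NCI reports and other sources, expert-reviewed; covers 1985-2011 and is no longer updated.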

Q: Which carcinogen call (Species: GUINEA PIG, Strain/Sex: FEMALE, Route: INTRAPERITONEAL, Dose: 1.5 G/100 G SUSPENDED IN SALINE-GUM ACACIA 3/WK FOR 27 MO, Tumor Site: Type of Lesion: INJECTION SITE: SARCOMA) does the source give for `CC(=O)N(O)c1ccc2c(c1)Cc1ccccc1-2` here?
A: active; positive

Q: And the carcinogen call (Species: GUINEA PIG, Strain/Sex: MALE, Route: ORAL, Dose: 0.024-0.064% IN DIET (AMOUNT VARIED BECAUSE OF TOXICITY), Tumor Site: Type of Lesion: INTESTINES (SMALL): ADENOCARCINOMA)?
A: active; positive

Q: And the carcinogen call (Species: HAMSTER, Strain/Sex: MALE, Route: INTRAPERITONEAL, Dose: 1.5 G/100 G SUSPENDED IN SALINE-GUM ACACIA 3/WK FOR 6-8 MO, Tumor Site: Type of Lesion: PERITONEAL CAVITY: FIBROSARCOMA)?
A: active; positive

Q: What about the carcinogen call (Species: HAMSTER, Strain/Sex: MALE, Route: ORAL, Dose: 0.032% IN DIET AS 5-10 G OF GLUCOSE TRITURATE/KG DIET FOR 7.5 MO, Tumor Site: Type of Lesion: FORESTOMACH: PAPILLOMA, SQUAMOUS CELL CARCINOMA, LIVER: BENIGN TUMOR) of the same compound?
A: active; positive

Q: And the carcinogen call (Species: MOUSE, Strain/Sex: B6C3F1/MALE, Route: INTRAPERITONEAL, Dose: 0, 0.025, 0.08, 0.23 UMOL/G BW IN 5 µL/G BW OF 80% DMSO ONCE AT 12 D OF AGE (STUDY DURATION: 9 MO), Dose: 0, 0.025, 0.08, 0.23 UMOL/G BW IN 5 µL/G BW OF 80% DMSO ONCE AT 12 D OF AGE (STUDY DURATION: 9 MO), Tumor Site: Type of Lesion: LIVER: HEPATOMA)?
A: active; positive

Q: What about the carcinogen call (Species: MOUSE, Strain/Sex: B6C3F2 (BRACHYMORPHOIC)/MALE, Route: INTRAPERITONEAL, Dose: 0, 0.025, 0.08, 0.23 UMOL/G BW IN 5 µL/G BW OF 80% DMSO ONCE AT 12 D OF AGE (STUDY DURATION: 9 MO), Dose: 0, 0.025, 0.08, 0.23 UMOL/G BW IN 5 µL/G BW OF 80% DMSO ONCE AT 12 D OF AGE (STUDY DURATION: 9 MO), Tumor Site: Type of Lesion: LIVER: HEPATOMA) of the same compound?
A: active; positive

Q: What about the carcinogen call (Species: RABBIT, Strain/Sex: NZW/MALE,FEMALE, Route: INTRAPERITONEAL, Dose: 32.3 MG/KG IN 3 ML/KG SALINE 3/WK FOR 40 WK, Tumor Site: Type of Lesion: PERITONEAL CAVITY: SARCOMA) of the same compound?
A: active; positive

Q: And the carcinogen call (Species: RAT, Strain/Sex: CRBL/FEMALE, Route: INTRAPERITONEAL, Dose: 4.O MG/100 G 3/WK FOR 2 WK THEN 3.0 MG/100 G 3/WK FOR 2 WK, Tumor Site: Type of Lesion: MAMMARY GLAND: BENIGN TUMOR, NEOPLASM)?
A: active; positive

Q: And the carcinogen call (Species: RAT, Strain/Sex: F344/FEMALE, Route: INTRAPERITONEAL, Dose: 0.10 MMOL/RAT (TOTAL DOSE), Tumor Site: Type of Lesion: LIVER: CHOLANGIOMA, CARCINOMA)?
A: active; positive

Q: What about the carcinogen call (Species: RAT, Strain/Sex: F344/MALE, Route: ORAL, Dose: 160 UG/G IN DIET FOR 12 WK, Tumor Site: Type of Lesion: LIVER: HEPATOMA) of the same compound?
A: active; positive

Q: And the carcinogen call (Species: RAT, Strain/Sex: HOLTZMAN/FEMALE, Route: INTRAPERITONEAL, Dose: 2-AAF EQUIV OF 2.5 MG SUSPENDED IN SALINE-GUM ACACIA 3/WK FOR 3 WK THEN 3.5 MG FOR 2 WK THEN 3.0 MG FOR 9 WK, Tumor Site: Type of Lesion: MAMMARY GLAND: NEOPLASM, PERITONEAL CAVITY: SARCOMA)?
A: active; positive

Q: And the carcinogen call (Species: RAT, Strain/Sex: HOLTZMAN/FEMALE, Route: INTRAPERITONEAL, Dose: 2-AAF EQUIV OF 4 MG IN 0.4 ML SALINE-GUM ACACIA 3/WK FOR 4 WK, Tumor Site: Type of Lesion: MAMMARY GLAND: NEOPLASM)?
A: active; positive

Q: What about the carcinogen call (Species: RAT, Strain/Sex: HOLTZMAN/FEMALE, Route: ORAL, Dose: 0.032% IN GRAIN DIET FOR 4 MO, Tumor Site: Type of Lesion: MAMMARY GLAND: NEOPLASM, FORESTOMACH: PAPILLOMA, CARCINOMA, EAR (DUCT): NEOPLASM, INTESTINES (SMALL), Tumor Site: Type of Lesion: MAMMARY GLAND: NEOPLASM, FORESTOMACH: PAPILLOMA, CARCINOMA, EAR (DUCT): NEOPLASM, INTESTINES (SMALL)) of the same compound?
A: active; positive

Q: What about the carcinogen call (Species: RAT, Strain/Sex: HOLTZMAN/MALE, Route: INTRAPERITONEAL, Dose: 2-AAF EQUIV OF 2.5 MG SUSPENDED IN SALINE-GUM ACACIA 3/WK FOR 3 WK THEN 3.5 MG 3/WK FOR 3 WK THEN 3.0 MG 3/WK FOR 9 WK, Tumor Site: Type of Lesion: EAR (DUCT): NEOPLASM, PERITONEAL CAVITY: SARCOMA, INTESTINES (SMALL): NEOPLASM, Tumor Site: Type of Lesion: EAR (DUCT): NEOPLASM, PERITONEAL CAVITY: SARCOMA, INTESTINES (SMALL): NEOPLASM) of the same compound?
A: active; positive

Q: What about the carcinogen call (Species: RAT, Strain/Sex: HOLTZMAN/MALE, Route: ORAL, Dose: 0.032% IN GRAIN DIET FOR 3 MO, Tumor Site: Type of Lesion: LIVER: NEOPLASM, FORESTOMACH: PAPILLOMA, CARCINOMA) of the same compound?
A: active; positive

Q: What about the carcinogen call (Species: RAT, Strain/Sex: HOLTZMAN/MALE, Route: SUBCUTANEOUS, Dose: 3.2 MG IN 0.2 ML TRICAPRYLIN 2/WK FOR 4 WK, Tumor Site: Type of Lesion: INJECTION SITE: SARCOMA, EAR (DUCT): CARCINOMA) of the same compound?
A: active; positive

Q: What about the carcinogen call (Species: RAT, Strain/Sex: NIHBL/MALE,FEMALE, Route: ORAL, Dose: 80 UG/G IN DIET FOR 64 WK, Tumor Site: Type of Lesion: LIVER: HEPATOMA, CHOLANGIOMA) of the same compound?
A: active; positive

Q: What about the carcinogen call (Species: RAT, Strain/Sex: SPRAGUE-DAWLEY/FEMALE, Route: INTRAPERITONEAL, Dose: 0.10, 0.17 MMOL/RAT (TOTAL DOSE), Tumor Site: Type of Lesion: MAMMARY GLAND: ADENOCARCINOMA) of the same compound?
A: active; positive

Q: What about the carcinogen call (Species: RAT, Strain/Sex: STRAIN-CD/FEMALE, Route: INTRAPERITONEAL, Dose: 0, 67 UMOL/KG BW IN DMSO 3/WK FOR 4 WK (STUDY DURATION: 61 WK), Tumor Site: Type of Lesion: MAMMARY GLAND: ADENOCARCINOMA, HEMATOPOIETIC SYSTEM: LEUKEMIA, LYMPHOMA) of the same compound?
A: active; positive

Q: What about the carcinogen call (Species: RAT, Strain/Sex: STRAIN-CD/FEMALE, Route: ORAL, Dose: 0.025% IN GRAIN DIET FOR 4 MO, Tumor Site: Type of Lesion: MAMMARY GLAND: CARCINOMA, LIVER: BENIGN TUMOR, NEOPLASM, EAR (DUCT): CARCINOMA, Tumor Site: Type of Lesion: MAMMARY GLAND: CARCINOMA, LIVER: BENIGN TUMOR, NEOPLASM, EAR (DUCT): CARCINOMA) of the same compound?
A: active; positive

Q: `CC1COCCN1N=O` (centres undefined) was tested. Which carcinogen call (Species: RAT, Strain/Sex: F344/FEMALE, Route: ORAL, Dose: 45 MG/L IN DRINKING WATER FOR 26 WK, Tumor Site: Type of Lesion: LIVER: HEPATOCELLULAR CARCINOMA, HEMANGIOENDOTHELIAL SARCOMA, ESOPHAGUS: PAPILLOMA, CARCINOMA) did it give?
A: active; positive

Q: For `CCCCC(CC)COP(=O)(OCC(CC)CCCC)OCC(CC)CCCC` (centres undefined), which carcinogen call (Species: MOUSE, Strain/Sex: B6C3F1/FEMALE, Route: GAVAGE, Dose: 0, 500, 1000 MG/KG IN CORN OIL 1/D 5 D/WK FOR 102-104 WK (STUDY DURATION: 102-104 WK), Dose: 0, 500, 1000 MG/KG IN CORN OIL 1/D 5 D/WK FOR 102-104 WK (STUDY DURATION: 102-104 WK), Tumor Site: Type of Lesion: LIVER: CARCINOMA, CARCINOMA OR ADENOMA) is on record?
A: active; positive

Q: What about the carcinogen call (Species: MOUSE, Strain/Sex: B6C3F1/FEMALE, Route: GAVAGE, Dose: 0, 500, 1000 MG/KG IN CORN OIL 5/WK FOR 103 WK (STUDY DURATION: 104 WK), Dose: 0, 500, 1000 MG/KG IN CORN OIL 5/WK FOR 103 WK (STUDY DURATION: 104 WK), Tumor Site: Type of Lesion: LIVER: ADENOMA, CARCINOMA) of the same compound?
A: active; positive

Q: What about the carcinogen call (Species: MOUSE, Strain/Sex: B6C3F1/MALE, Route: GAVAGE, Dose: 0, 500, 1000 MG/KG IN CORN OIL 1/D 5 D/WK FOR 102-104 WK (STUDY DURATION: 102-104 WK), Dose: 0, 500, 1000 MG/KG IN CORN OIL 1/D 5 D/WK FOR 102-104 WK (STUDY DURATION: 102-104 WK)) of the same compound?
A: inactive; negative

Q: And the carcinogen call (Species: MOUSE, Strain/Sex: B6C3F1/MALE, Route: GAVAGE, Dose: 0, 500, 1000 MG/KG IN CORN OIL 5/WK FOR 103 WK (STUDY DURATION: 104 WK), Dose: 0, 500, 1000 MG/KG IN CORN OIL 5/WK FOR 103 WK (STUDY DURATION: 104 WK))?
A: inactive; negative

Q: What about the carcinogen call (Species: RAT, Strain/Sex: F344/FEMALE, Route: GAVAGE, Dose: 0, 1000, 2000 MG/KG IN CORN OIL 5/WK FOR 103 WK (STUDY DURATION: 103 WK), Dose: 0, 1000, 2000 MG/KG IN CORN OIL 5/WK FOR 103 WK (STUDY DURATION: 103 WK)) of the same compound?
A: inactive; negative

Q: What about the carcinogen call (Species: RAT, Strain/Sex: F344/FEMALE, Route: GAVAGE, Dose: 0, 1000, 2000 MG/KG IN CORN OIL 5 D/WK FOR 102-104 WK (STUDY DURATION: 102-104 WK), Dose: 0, 1000, 2000 MG/KG IN CORN OIL 5 D/WK FOR 102-104 WK (STUDY DURATION: 102-104 WK)) of the same compound?
A: inactive; negative

Q: And the carcinogen call (Species: RAT, Strain/Sex: F344/MALE, Route: GAVAGE, Dose: 0, 2000, 4000 MG/KG IN CORN OIL 5/WK FOR 103 WK (STUDY DURATION: 104 WK), Dose: 0, 2000, 4000 MG/KG IN CORN OIL 5/WK FOR 103 WK (STUDY DURATION: 104 WK), Tumor Site: Type of Lesion: ADRENAL GLAND: PHEOCHROMOCYTOMA)?
A: equivocal

Q: What about the carcinogen call (Species: RAT, Strain/Sex: F344/MALE, Route: GAVAGE, Dose: 0, 2000, 4000 MG/KG IN CORN OIL 5 D/WK FOR 102-104 WK (STUDY DURATION: 102-104 WK), Dose: 0, 2000, 4000 MG/KG IN CORN OIL 5 D/WK FOR 102-104 WK (STUDY DURATION: 102-104 WK)) of the same compound?
A: inactive; negative

Reference: PubChem BioAssay AID1259411 (Chemical Carcinogenesis Research Information System (CCRIS), 2018)
